Data from patent publication US11129870B2, “Compositions and methods for uncoupling TrkB receptor from PLC gamma 1 for the treatment of epilepsy and anxiety-like disorder” (DUKE UNIVERSITY, priority 2010, dated 2021).
Where no end group is shown, it is not given here. [ ]: non-standard residue; d: D form. pY = N[C@@H](Cc1ccc(OP(=O)(O)O)cc1)C(=O)O

Columns and labels:
Format in all cases: in vivo, mouse
Akt = assay: p-Akt in hippocampal lysates of naive mice after i.v. peptide; conditions: 10 mg/kg i.v., 3 hr
Description: (§1) Animals were anesthetized with pentobarbital (200 mg/kg i.p.) and decapitated, and the head was quickly immersed in liquid nitrogen for 4 s to rapidly cool the brain. The hippocampi were rapidly dissected on ice and homogenized in RIPA buffer, incubated on ice for 15 min, and centrifuged at 200,000×g for 10 min at 4° C. The supernatant was collected and stored at −80° C. until further analysis. TrkB was immunoprecipitated using TrkB antibody (1:1000, Millipore) and the lysates were incubated with 100 μL of protein A-Sepharose beads (Roche) overnight in 4° C. The beads/immune complexes were pelleted in a microcentrifuge and then resuspended in RIPA buffer and this procedure was repeated two additional times before adding 2×SDS PAGE sample buffer and boiled. After SDS PAGE, the gels were probed with TrkB and PLCγ1 antibody (1:1000, Cell signaling). Western blotting was conducted as previously described (He et al., 2010). Cell lysate and hippocampal homogenate were probed with p-PLCγ1 (pY783), PLCγ1, p-Akt (pS473), Akt, p-ERK (p44/p42) and ERK (1:1000, Cell signaling). The immunoreactivity of individual bands on western blots was measured by ImageJ software (National Institutes of Health) and normalized to PLCγ1, Akt or ERK contents. Equivalent protein loading among samples was monitored by β-actin (1:10000; Sigma) levels. […]

PLCγ1 [1] = assay: SE-induced activation of PLCγ1 in hippocampus, peptide given i.v. after SE; conditions: 6 hr later
Description: Surgery and microinfusion studies provided in Examples 10-14 were performed as described here. Surgery and microinfusion of KA into right amygdala of adult mice was performed as previously described (Liu, G. et al., (2013) Neuron 79:31-38). Briefly, mice were anesthetized with pentobarbital (60 mg/kg, intraperitoneally [i.p.]) and placed in a stereotaxic frame. A guide cannula was stereotactically placed above the right amygdala (coordinates from bregma: AP=−1.2 mm; ML=3.0 mm). A bipolar electrode was placed in the left dorsal hippocampus (coordinates from bregma: AP=−2.0 mm; ML=−1.6 mm; DV=−1.5 mm). A ground electrode connected to a screw was placed in the skull above the cerebellum. After a postoperative recovery period of 7 days, the animal was gently restrained and an infusion cannula was inserted into the right amygdala through the guide cannula at the depth of 3.7 mm below dura. […]
(§2) Animals were anesthetized with pentobarbital (200 mg/kg i.p.) and decapitated, and the head was quickly immersed in liquid nitrogen for 4 s to rapidly cool the brain. […] The immunoreactivity of individual bands on western blots was measured by ImageJ software (National Institutes of Health) and normalized to PLCγ1, Akt or ERK contents. Equivalent protein loading among samples was monitored by β-actin (1:10000; Sigma) levels. […]

PLCγ1 [2] = assay: p-PLCγ1 in brain of naive mice after intravenous peptide (western blot)
Description: An important issue with respect to usefulness of Tat-pTRKBY816 is whether, following peripheral administration, the peptide can inhibit PLCγ1 activation in the brain in vivo. To test this idea, adult C57/B6 mice underwent tail vein injection of vehicle (normal saline [NS]) or Tat-scrambled-pTrkY816 or Tat-pTrkBY816 (10 mg/kg, 2 mice per group). Animals were sacrificed 3 hours post administration, the hippocampus dissected and homogenate prepared for western blotting. […] These findings support the assertion that the peptide passes through the blood brain barrier and inhibits PLCγ1 activation in vivo.
as §2, with “brain. The hippocampi were rapidly dissected on ice and homogenized in RIPA buffer, incubated on ice for 15 min, and centrifuged at 200,000×g for 10 min at 4° C. The supernatant was collected and stored at −80° C. until further analysis.” for “brain.”

ERK = assay: p-ERK in hippocampal lysates of naive mice after i.v. peptide; conditions: 10 mg/kg i.v., 3 hr
Description: as §1

YGRKKRRQRRR-LQNLAKASPVpYLDI (YGRKKRRQRRRLQNLAKASPV[pY]LDI) [pY816]
p-Akt in hippocampal lysates (Akt): neither p-Akt nor p-ERK was affected | inhibition of SE-induced activation of PLCγ1 (p-PLCγ1 pY783 to PLCγ1 ratio) (PLCγ1 [1]; 10 mg/kg i.v. immediately after diazepam): ~75% | inhibition of SE-induced activation of PLCγ1 (p-PLCγ1 pY783 to PLCγ1 ratio) (PLCγ1 [1]; 20 mg/kg i.v. immediately after diazepam): ~75% | reduction of p-PLCγ1 (pY783) immunoreactivity (PLCγ1 [2]; 10 mg/kg i.v., 3 hr, hippocampal lysates, in comparison to Scr): ~50% | phospho-PLCγ1 in brain homogenate (PLCγ1 [2]; 10 mg/kg tail vein, 3 hours post administration, vs saline or scrambled peptide): reduced the phosphor-PLCγ1 | p-ERK in hippocampal lysates (ERK): neither p-Akt nor p-ERK was affected
